assay: Inhibition of RSV Long fusion protein assessed as protection against virus induced cytopathic effect in infected human Hep2 cells after 5 days by CCK8 assay

Row | Structure (SMILES) | EC50 [nM]
1 | Cc1ccc2nc(N3CCCc4cc(F)ccc4C3)cc(NCCN)c2c1 | 460
2 | NCCNc1cc(N2CCCc3ccccc3C2)nc2ccc(F)cc12 | 1500
3 | Cc1ccc2nc(N3CCCc4ccc(F)cc4C3)cc(NCCN)c2c1 | 100
4 | NCCNc1cc(N2CCCc3ccccc3C2)nc2ccc(C(F)(F)F)cc12 | 1100
5 | Cc1ccc2nc(N3CCNc4ccccc4C3)cc(NCCN)c2c1 | 230
6 | Cc1ccc2nc(N3CCS(=O)(=O)c4ccccc4C3)cc(NCCCCN)c2c1 | 7
7 | NCCCNc1cc(N2CCc3ccccc3C2)nc2ccccc12 | 7800
8 | Cc1ccc2nc(N3CCS(=O)(=O)c4ccccc4C3)cc(NCCCCCN)c2c1 | 27
9 | NCCNc1cc(N2CCCc3ccccc3C2)nc2cc(Cl)ccc12 | > 3200
10 | Cc1ccc2nc(N3CCS(=O)(=O)c4ccccc4C3)cc(NCCCN)c2c1 | 1
11 | N=C(N)NCCNc1cc(N2CCc3ccccc3C2)nc2ccccc12 | 2300
12 | NCCNc1cc(N2CCS(=O)(=O)c3ccccc3C2)nc2ccccc12 | 11
13 | Cc1ccc2nc(N3CC(=O)Nc4ccccc4C3)cc(NCCN)c2c1 | 310
14 | Cc1ccc2nc(N3CCC(F)(F)c4ccccc4C3)cc(NCCN)c2c1 | 62
15 | CC(O)CNc1cc(N2CCc3ccccc3C2)nc2ccccc12 (stereo not drawn) | > 100000
16 | OCC(O)CNc1cc(N2CCc3ccccc3C2)nc2ccccc12 (stereo not drawn) | 22000

Row | Structure (SMILES) | EC50 [nM]
17 | NCCNc1cc(N2CCCc3ccccc3C2)nc2ccc(Cl)cc12 | 120
18 | NCC(O)CNc1cc(N2CCc3ccccc3C2)nc2ccccc12 (stereo not drawn) | 220
19 | NCCNc1cc(N2CCCc3ccccc3C2)nc2ccccc12 | 200
20 | NCCNc1cc(N2CCCc3ccccc3C2)nc2cccc(Cl)c12 | 6600
21 | COc1ccc2nc(N3CCCc4ccccc4C3)cc(NCCN)c2c1 | 320
22 | NC(=O)NCCNc1cc(N2CCc3ccccc3C2)nc2ccccc12 | 15000
23 | NCC(O)CNc1cc(N2CCCc3ccccc3C2)nc2ccccc12 (stereo not drawn) | 220
24 | NCCNc1cc(N2CCCc3ccccc3C2)nc2c(Cl)cccc12 | 1100
25 | Cc1ccc2nc(N3CCCc4ccccc4C3)cc(NCCN)c2c1 | 73
26 | NCCNc1cc(N2CCc3ccccc3C2)nc2ccccc12 | 2300
27 | NCC(O)CNc1cc(N2Cc3ccccc3C2)nc2ccccc12 (stereo not drawn) | > 100000
28 | CS(=O)(=O)c1ccc2nc(N3CCCc4ccccc4C3)cc(NCCN)c2c1 | 5600
29 | Cc1ccc2nc(N3CCS(=O)(=O)c4ccccc4C3)cc(NCCN)c2c1 | 4
30 | NCCNc1cc(N2CCOc3ccccc3C2)nc2ccccc12 | 230
31 | NCCCCNc1cc(N2CCc3ccccc3C2)nc2ccccc12 | > 100000

assay: Inhibition of RSV Long fusion protein L138F mutant assessed as protection against virus induced cytopathic effect in infected human Hep2 cells after 5 days by CCK8 assay

Row | Structure (SMILES) | IC50 [nM]
32 | NCCNc1cc(N2CCCc3ccccc3C2)nc2ccccc12 | 2300

assay: Inhibition of RSV Long fusion protein assessed as decrease in virus induced syncytium formation in infected human HeLa/M cells

Row | Structure (SMILES) | EC50 [nM]
33 | Cc1ccc(O)c(Cn2c(NC3CCN(CCN)CC3)nc3c(C)cccc32)n1 [JNJ 2408068] | 0.16
